These results are taken from a melting point compilation (Tetko et al.; mined from patent text by program, amines drawn as free bases though some values may be those of a salt).

Regarding `CCn1c(C)c(C(=O)c2ccc(N)cc2C(=O)O)c2ccccc21`, the melting point (in general, the temperature of the solid-liquid transition) lay within 187 to 189 °C.

Compound `CCOC(=O)CCC(NC(=O)c1ccc(CNCC2CNc3nc(NC(=O)C(C)(C)C)nc(O)c3C2)cc1)C(=O)OCC` (stereo not drawn) came in with a melting point of 146 to 147 °C.

For the compound `COc1nc(C(Cl)(Cl)Cl)c(Cl)c(OC)c1Cl`, the melting point was 67 to 69 °C.

`O=C(N[C@H](Cc1ccc(F)cc1)[C@@H](O)c1ccc(F)cc1)C1CCCCC1` (racemic) displayed a melting point of 203 to 204 °C.

As to `CCS(=O)(=O)Nc1c(C)cccc1C`, the melting point was 90 °C.

The compound `Cc1cc(Cl)n2nc(SCc3ccccc3)nc2c1` displayed a melting point of 108 to 110 °C.

In turn, `COc1cc(S(C)(=O)=O)ccc1-c1nc2cc3c(cc2[nH]1)N(C(C)=O)CC3(C)C` gave a melting point of 223 to 225 °C.

In turn, `NC(=O)c1cnccc1C(F)(F)F` yielded a melting point of 163 °C.

The compound `Cc1ccc(-n2nc(C#N)cc2-c2ccc(S(C)(=O)=O)cc2)cc1F` displayed a melting point of 167 to 168 °C.

Turning to `NC(=O)[C@@H](N)CN(c1ccccc1)c1ncccn1`, the melting point came out at 139 °C.

Take `Nc1ccccc1NS(=O)(=O)c1cc(C(=O)O)cc(NCc2ccco2)c1Oc1ccccc1`: the melting point was 105 to 110 °C.

Compound `COc1ncnc(N2CCc3ccccc3CC2)c1[N+](=O)[O-]` had a melting point of 147 to 150 °C.

The compound `Cc1nc(C)c(C(C)(O)c2ccccc2)o1` (stereo not drawn) returned a melting point of 94.5 to 96 °C.

In turn, `CN(C)CCCN(C(=O)Cc1ccccc1)c1ccccc1SCc1ccc(Cl)cc1` had a melting point of 92 to 94 °C.

With `CCOC(=O)c1c(Nc2cc(F)ccc2[N+](=O)[O-])sc2ccccc12`, the melting point was 137 to 140 °C.

In turn, `Cc1ncc(CC(=O)O)s1` gave a melting point of 144 °C.

Compound `O=c1[nH]c(=Cc2ccc3ccccc3n2)c(=O)[nH]c1=Cc1ccc(F)cc1` showed a melting point of 319 to 320 °C.

For the compound `COc1ccc(C(=O)Nc2ccc3ccc(Oc4ccccc4Br)nc3n2)cc1`, the melting point came out at 183 °C.

The compound `CCn1c(=O)c2[nH]c(/C=C/c3ccc(F)c(Br)c3)nc2n(CC)c1=O` had a melting point of over 300 °C.

The compound `COc1cc(N(C)C)ccc1C(=O)NC1CCN(C(C)CC(C(=O)N(C)C)(c2ccccc2)c2ccccc2)CC1O` (stereo not drawn) came in with a melting point of 211 °C.

Consider `CCC12CCC(=O)C=C1c1c(cc(OCC#N)c(Cl)c1Cl)C2` (stereo not drawn), for which the melting point is 171 to 172 °C.

Turning to `C=COc1ccccc1S(=O)(=O)NC(=O)c1ccc(Cc2cn(C)c3ccc(NC(=O)OC4CCCC4)cc23)c(OC)c1`, the melting point was in the range of 185 to 188 °C.

`O=c1cc(CO)oc2ccccc12` registered a melting point of 165 to 167 °C.

As for `CCc1nccc(NC(=O)Cc2ccc(O)cc2)c1Cl`, the melting point lay in the range of 158 to 161 °C.

As to `O=C(c1ccc([N+](=O)[O-])cc1)N1CCCCc2ccccc21`, the melting point is 148 to 150 °C.

`COc1cc(-c2cnc3[nH]cc(C(=O)C4(C)CCC(O)CC4)c3n2)cc(OC)c1OC` (stereo not drawn) had a melting point of 242 to 244 °C.

Consider `CC(=O)Nc1ccc(C#CCCN2CC=C(c3ccccc3)CC2)cn1`, for which the melting point lay within 169 to 170 °C.

The compound `Cc1ncsc1C(=O)Nc1cnc(-n2nc(C(F)(F)F)cc2C2CC2)nc1` had a melting point of 148 to 152 °C.

Consider `Cc1cn(CC#CCN2CCCC2=O)cn1`, for which the melting point is 134 to 137 °C.

In turn, `COC1=C(C#N)C(=O)N(C)C1=O` displayed a melting point of 123 to 125 °C.

`COc1ccc2c(CC(=O)O)c(C(=O)c3ccc(Cl)cc3)[nH]c2c1` showed a melting point of 193 °C.

`O=Cc1c2ccccc2c(Cl)c2cccc(Cl)c12` showed a melting point of 180 to 183 °C.

Regarding `COc1cc(Br)nc2[nH]cc(-c3ccnc(N)n3)c12`, the melting point was over 210 °C.

Consider `COc1ccc(OC)c(CN2CCc3cc(O)c(OC)cc3C2)c1`, for which the melting point was 104 to 105 °C.

With `O=C(O)c1ccc2c(c1)S(=O)(=O)c1ccc(Cl)cc1C2=O`, the melting point lay in the range of 352 to 355 °C.

In turn, `CCCCOc1ccc(COC(=O)C(=O)OCc2ccc(OCCCC)cc2)cc1` came in with a melting point of 114 °C.

`Cc1c(C)c2c(c(C)c1O)C(c1ccc(C(C)C)cc1)C1(CCN(C)CC1)O2` (stereo not drawn): the melting point lay in the range of 114 to 117 °C.

Regarding `CC1(C)OC(c2ccc(S(C)(=O)=O)cc2F)=C(c2ccccc2)C1=O`, the melting point is 175 to 176 °C.

`Cc1ccc(S(=O)(=O)NC(=O)OCCc2ccc(-n3c(CCCc4cccnc4)nc4cc(C(F)(F)F)c(Cl)cc43)cc2)cc1` returned a melting point of 90 to 95 °C.

`Brc1ccc2c(c1)Cc1cc(I)ccc1-2`: the melting point lay within 179 to 185 °C.

Turning to `CCCCCCCCCCCCCCCCSCC(CNS(=O)(=O)CCCI)NC(=O)OCCCC` (stereo not drawn), the melting point was in the range of 82 to 83 °C.

The compound `CCOC(=O)COc1coc(CCl)cc1=O` gave a melting point of 98 to 100 °C.

On to `O=C(O)c1ccccc1Sc1ccc(Cl)c(F)c1`, for which the melting point lay in the range of 231 to 232 °C.

`CN1CCC(c2c[nH]c3cc(NC(=N)c4cccs4)ccc23)C1` (stereo not drawn) displayed a melting point of 89 to 91 °C.

With `O=C(COc1cc(-c2ccccc2)nc2cccc(Cl)c12)N1CCOCC1`, the melting point came to 168 °C.

The compound `Cc1cc(F)ccc1-c1nc(N[C@@H](C)CO)nc2c1ccc(=O)n2-c1c(F)cccc1F` registered a melting point of 90 to 95 °C.

Turning to `Cn1c(=O)n(CC2CO2)n(CC2CO2)c1=O` (stereo not drawn), the melting point was in the range of 115 to 116 °C.

In turn, `CC(=O)NC(C)CCC1CCN(c2nc3ccc(OCC4CC4)cc3o2)CC1` (stereo not drawn) yielded a melting point of 131 to 132 °C.

With `CC1(C)CC(=C(c2ccc(O)cc2)c2ccc(-c3ccc(CO)cc3)cc2)CC(C)(C)C1`, the melting point lay in the range of 222 to 223 °C.

In turn, `O=C1Cc2ccccc2N1C1=NCCS1` returned a melting point of 97 to 99 °C.

In the case of `COCCOC(=O)OC[C@@H]1CC(c2ccc(-c3ccc(N4C[C@H](Cn5ccnn5)OC4=O)cc3F)cn2)=NO1`, the melting point was 112 °C.

As to `Cc1cccc(-c2oc3c(C(=O)NCCCN4CCCCC4)cccc3c(=O)c2C)c1`, the melting point is 112 to 114 °C.

Compound `CCc1nn(C2CCCCC2)c2cc(C(=O)O)ccc12` displayed a melting point of 196 to 197 °C.

Regarding `CC(=O)N(C(=O)OC(C)(C)C)c1ccc(-c2nc3n(Cc4c(F)cccc4F)cc(-c4ccccc4)c(=O)n3c2C)cc1`, the melting point lay within 220 to 222 °C.

`CC(C)(C)OC(=O)c1sc(Nc2ccccc2)c2c1CCc1cnoc1-2` registered a melting point of 148 to 149 °C.

As to `N#CCC(=O)NC1CCCCC1NC(=O)CC#N` (stereo not drawn), the melting point was 202 to 204 °C.

`Cc1ccc(-c2ccc3c(c2)C=C(C(=O)Nc2ccc(CN4CCN(C(c5ccccc5)c5ccccc5)CC4)cc2)CC3)cc1` came in with a melting point of 217 to 218 °C.

With `C[C@H](N)C(=O)Nn1cccc1`, the melting point fell in the range of 63 to 66 °C.

On to `FC(F)(F)c1ccc(-c2cc(C(F)(F)F)cc(Br)n2)cc1`, for which the melting point lay in the range of 35 to 37 °C.

`CCC(=C(c1ccc(O)cc1)c1ccc(O)cc1)c1cccc(-c2c(C)noc2C)c1` came in with a melting point of 173 to 174 °C.

In turn, `CCOC(=O)/C(C#N)=C/c1c(OC)cccc1OC` came in with a melting point of 99 to 101 °C.

`CC(=O)OCCOc1ccc2oc3cc(C#N)ccc3c(=O)c2c1` displayed a melting point of 194 to 196 °C.

Compound `CC(C)C1Sc2ccccc2NC(=O)C1NC(=O)C(F)(F)F` (stereo not drawn) gave a melting point of 212 to 215 °C.
